This is an account of results in PMC13088180, “Chemical Proteomics Reveal the Inventory of Pyrroloquinoline Quinone Binding Proteins in Bacteria” (Journal of the American Chemical Society, 2026).

Each structure is given as a SMILES string.

For one experiment, the target named is T1, HtpG (Escherichia coli, UniProt P0A6Z3).
T1 construct: recombinant from E. coli BL21, purified without PQQ; 73529 Da peak is a +135 Da adduct
Briefly: UV/vis spectral shift; intact protein LC-MS. The format is binding. The conditions noted are these: covalent; 100 uM protein, 300 uM PQQ, 4 °C overnight.

The next experiment has as its target T2, SurA (Escherichia coli, UniProt P0ABZ6).
T2 construct: recombinant from E. coli BL21, purified without PQQ
T2 sequence (P0ABZ6 21-428): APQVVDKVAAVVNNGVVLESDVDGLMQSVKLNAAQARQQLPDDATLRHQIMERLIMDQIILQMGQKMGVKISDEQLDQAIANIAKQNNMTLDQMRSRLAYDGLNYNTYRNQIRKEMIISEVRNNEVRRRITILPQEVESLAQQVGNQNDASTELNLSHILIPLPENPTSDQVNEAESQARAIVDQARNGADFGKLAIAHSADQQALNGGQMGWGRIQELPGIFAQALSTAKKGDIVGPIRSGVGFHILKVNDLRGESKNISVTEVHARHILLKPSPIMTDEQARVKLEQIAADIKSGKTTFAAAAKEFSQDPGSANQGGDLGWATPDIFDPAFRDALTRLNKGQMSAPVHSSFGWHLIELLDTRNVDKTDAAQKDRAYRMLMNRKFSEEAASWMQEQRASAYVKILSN
The experiment can be described thus: UV/vis spectral shift; intact protein LC-MS. Type of experiment: binding. The conditions noted are these: covalent; 100 uM protein, 300 uM PQQ, 4 °C overnight.

The target of another experiment is T3, Tig (trigger factor) (Escherichia coli, UniProt P0A850).
T3 construct: recombinant from E. coli BL21, purified without PQQ
T3 sequence (P0A850 1-432): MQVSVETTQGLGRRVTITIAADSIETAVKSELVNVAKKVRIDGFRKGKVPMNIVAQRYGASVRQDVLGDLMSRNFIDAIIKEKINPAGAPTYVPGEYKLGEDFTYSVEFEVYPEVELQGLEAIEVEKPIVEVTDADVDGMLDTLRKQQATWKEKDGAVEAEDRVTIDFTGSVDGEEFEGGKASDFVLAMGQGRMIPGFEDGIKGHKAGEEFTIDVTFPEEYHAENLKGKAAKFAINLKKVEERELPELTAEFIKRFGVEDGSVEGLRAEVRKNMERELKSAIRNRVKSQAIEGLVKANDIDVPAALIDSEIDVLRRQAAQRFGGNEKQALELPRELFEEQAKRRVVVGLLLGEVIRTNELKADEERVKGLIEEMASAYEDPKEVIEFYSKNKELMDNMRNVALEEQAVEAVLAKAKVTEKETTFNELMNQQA
Briefly: UV/vis spectral shift; intact protein LC-MS. Type of experiment: binding. The settings on record: covalent; 100 uM protein, 300 uM PQQ, 4 °C overnight.

A further experiment addresses T4, PpiD (Pseudomonas putida, UniProt Q88KI6).
T4 construct: gene PP_2304; recombinant from E. coli BL21, purified without PQQ
T4 sequence (Q88KI6 36-623): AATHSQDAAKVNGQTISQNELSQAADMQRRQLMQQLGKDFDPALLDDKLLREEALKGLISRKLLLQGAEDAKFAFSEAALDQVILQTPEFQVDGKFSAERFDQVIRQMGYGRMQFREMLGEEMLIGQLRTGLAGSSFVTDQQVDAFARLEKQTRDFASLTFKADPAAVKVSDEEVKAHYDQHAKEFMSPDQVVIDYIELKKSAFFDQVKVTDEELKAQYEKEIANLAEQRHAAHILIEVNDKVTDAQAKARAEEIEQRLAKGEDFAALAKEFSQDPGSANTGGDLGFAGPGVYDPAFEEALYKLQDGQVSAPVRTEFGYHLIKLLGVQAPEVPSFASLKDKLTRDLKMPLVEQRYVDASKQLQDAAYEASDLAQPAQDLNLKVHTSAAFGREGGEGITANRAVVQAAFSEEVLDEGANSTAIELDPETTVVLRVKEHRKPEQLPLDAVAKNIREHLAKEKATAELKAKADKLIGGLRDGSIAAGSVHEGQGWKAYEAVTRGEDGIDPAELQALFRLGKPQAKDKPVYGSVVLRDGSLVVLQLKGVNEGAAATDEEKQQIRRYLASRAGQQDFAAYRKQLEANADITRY
Briefly: UV/vis spectral shift; intact protein LC-MS. Type of experiment: binding. The settings on record: covalent; 100 uM protein, 300 uM PQQ, 4 °C overnight.

Another experiment has as its target T5, RuvB (Escherichia coli, UniProt P0A812).
T5 construct: recombinant from E. coli BL21, purified without PQQ
T5 sequence (P0A812 1-336): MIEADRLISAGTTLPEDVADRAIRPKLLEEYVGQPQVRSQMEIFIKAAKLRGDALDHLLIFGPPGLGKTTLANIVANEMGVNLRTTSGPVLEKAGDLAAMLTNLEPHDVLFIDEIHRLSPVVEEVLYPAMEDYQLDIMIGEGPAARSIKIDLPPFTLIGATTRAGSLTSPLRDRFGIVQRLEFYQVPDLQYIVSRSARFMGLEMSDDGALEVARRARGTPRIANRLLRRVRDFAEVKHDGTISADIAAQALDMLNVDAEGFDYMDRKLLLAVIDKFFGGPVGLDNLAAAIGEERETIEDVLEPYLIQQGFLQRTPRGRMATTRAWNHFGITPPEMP
The experiment can be described thus: UV/vis spectral shift; intact protein MS; MS/MS site mapping. The settings on record: covalent; lysine K26 (main) and K46; 100 uM protein, 300 uM PQQ, 4 °C overnight. Type of experiment: binding.

The target in experiment [1] is T6, 6PGD / 6GPD (6-phosphogluconate dehydrogenase, decarboxylating) (Escherichia coli, UniProt P00350).
T6 construct: gene gnd; endogenous protein in E. coli K-12 lysate
T6 sequence (P00350 1-468): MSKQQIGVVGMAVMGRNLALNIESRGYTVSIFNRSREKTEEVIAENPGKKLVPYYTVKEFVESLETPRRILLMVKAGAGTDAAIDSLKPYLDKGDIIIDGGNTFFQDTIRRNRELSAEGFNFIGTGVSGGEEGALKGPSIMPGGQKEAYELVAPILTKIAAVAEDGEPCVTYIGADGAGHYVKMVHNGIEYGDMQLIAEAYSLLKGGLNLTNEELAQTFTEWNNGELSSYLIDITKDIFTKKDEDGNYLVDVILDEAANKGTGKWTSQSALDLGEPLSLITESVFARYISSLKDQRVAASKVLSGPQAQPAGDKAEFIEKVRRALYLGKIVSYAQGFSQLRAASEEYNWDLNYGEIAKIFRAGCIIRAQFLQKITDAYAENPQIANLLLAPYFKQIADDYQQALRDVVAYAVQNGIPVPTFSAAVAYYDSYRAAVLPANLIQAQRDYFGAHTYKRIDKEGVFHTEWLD
Briefly: MS/MS closed search of +310 Da on lysine. Type of experiment: biochemical. The settings on record: covalent; E. coli K-12 lysate 3.5 mg/mL, 2000 uM PQQ, 2000 uM CaCl2, 37 °C, 4 h.

Another experiment deals with T7, FklB (Escherichia coli, UniProt P0A9L3).
T7 construct: recombinant from E. coli BL21, purified without PQQ
T7 sequence (P0A9L3 2-206): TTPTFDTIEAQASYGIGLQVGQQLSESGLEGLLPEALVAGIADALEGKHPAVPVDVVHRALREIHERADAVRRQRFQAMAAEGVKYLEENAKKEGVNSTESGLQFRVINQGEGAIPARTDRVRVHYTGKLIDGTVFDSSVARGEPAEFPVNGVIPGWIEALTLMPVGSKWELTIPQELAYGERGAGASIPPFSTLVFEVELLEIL
Briefly: UV/vis spectral shift; competition of PQQ4 labelling. The format is binding. The conditions noted are these: no covalent adduct by intact protein MS.

Experiment [2] addresses T8, MBP (maltose-binding protein) (Escherichia coli, UniProt P0AEX9).
T8 construct: gene malE; recombinant from E. coli BL21, purified without PQQ
The experiment can be described thus: UV/vis spectral shift; intact protein LC-MS. The settings on record: covalent; 100 uM protein, 300 uM PQQ, 4 °C overnight.

The next experiment deals with T9, PedH (Pseudomonas putida, UniProt Q88JH0).
T9 sequence (Q88JH0 28-595): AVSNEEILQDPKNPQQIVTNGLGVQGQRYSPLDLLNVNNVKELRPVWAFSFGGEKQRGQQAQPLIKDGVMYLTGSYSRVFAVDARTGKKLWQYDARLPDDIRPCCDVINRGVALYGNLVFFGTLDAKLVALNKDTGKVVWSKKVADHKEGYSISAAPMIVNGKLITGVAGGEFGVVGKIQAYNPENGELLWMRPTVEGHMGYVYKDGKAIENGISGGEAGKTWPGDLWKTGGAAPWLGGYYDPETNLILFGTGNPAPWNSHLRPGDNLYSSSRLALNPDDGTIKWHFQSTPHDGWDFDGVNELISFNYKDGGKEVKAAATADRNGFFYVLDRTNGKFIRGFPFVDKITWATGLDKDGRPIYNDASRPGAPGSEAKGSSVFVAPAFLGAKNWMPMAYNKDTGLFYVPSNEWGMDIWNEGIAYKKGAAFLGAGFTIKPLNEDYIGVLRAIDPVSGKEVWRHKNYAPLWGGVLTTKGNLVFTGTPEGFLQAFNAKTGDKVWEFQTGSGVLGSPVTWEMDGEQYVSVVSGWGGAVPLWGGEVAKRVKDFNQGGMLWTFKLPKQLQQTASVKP
The conditions noted are these: 100 nM enzyme reconstituted with PQQ, 50 mM ethanol.

The target in another experiment is T10, YliI (Escherichia coli, UniProt P75804).
T10 construct: recombinant, purified cofactor-free; details only in supplement
T10 sequence (P75804 21-371): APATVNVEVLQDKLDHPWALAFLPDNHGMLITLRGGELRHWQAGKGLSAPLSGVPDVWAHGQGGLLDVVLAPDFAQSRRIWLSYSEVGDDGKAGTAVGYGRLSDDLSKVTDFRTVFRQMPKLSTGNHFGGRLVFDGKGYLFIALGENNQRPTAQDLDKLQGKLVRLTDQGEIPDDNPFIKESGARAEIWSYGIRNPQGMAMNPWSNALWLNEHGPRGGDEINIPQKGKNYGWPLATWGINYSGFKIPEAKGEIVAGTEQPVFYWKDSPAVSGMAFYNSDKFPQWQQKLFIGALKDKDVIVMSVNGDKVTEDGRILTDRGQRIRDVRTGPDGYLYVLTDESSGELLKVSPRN
Briefly: coupled colorimetric assay. Type of experiment: biochemical. The settings on record: 100 nM enzyme reconstituted with PQQ, 1.25 M glucose.

T1 sequence (P0A6Z3 whole entry): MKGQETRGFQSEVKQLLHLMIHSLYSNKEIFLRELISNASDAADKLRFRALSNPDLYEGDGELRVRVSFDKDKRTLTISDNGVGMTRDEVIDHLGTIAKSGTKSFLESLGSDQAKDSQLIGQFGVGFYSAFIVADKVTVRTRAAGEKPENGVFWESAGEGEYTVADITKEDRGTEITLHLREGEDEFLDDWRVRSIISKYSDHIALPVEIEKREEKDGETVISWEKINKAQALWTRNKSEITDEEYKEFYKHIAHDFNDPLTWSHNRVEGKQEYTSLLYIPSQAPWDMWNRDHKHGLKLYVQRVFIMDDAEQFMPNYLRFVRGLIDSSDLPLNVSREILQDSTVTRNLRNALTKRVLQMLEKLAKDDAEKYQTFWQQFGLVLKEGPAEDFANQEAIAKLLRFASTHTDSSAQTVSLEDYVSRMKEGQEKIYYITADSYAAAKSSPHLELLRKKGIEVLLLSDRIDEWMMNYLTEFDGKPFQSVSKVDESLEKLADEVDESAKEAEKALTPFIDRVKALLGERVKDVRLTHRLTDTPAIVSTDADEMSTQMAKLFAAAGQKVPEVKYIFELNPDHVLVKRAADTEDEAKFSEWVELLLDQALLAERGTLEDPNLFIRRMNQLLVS

As to `O=C(O)c1cc(C(=O)O)c2c(n1)C(=O)C(=O)c1cc(C(=O)O)[nH]c1-2` [PQQ, Pyrroloquinoline quinone], the “+310 Da mass shift” value is “covalent PQQ binding in the case of Tig, HtpG, MBP, RuvB, SurA, and PpiD” on HtpG; “covalent PQQ binding in the case of Tig, HtpG, MBP, RuvB, SurA, and PpiD” at SurA; “covalent PQQ binding in the case of Tig, HtpG, MBP, RuvB, SurA, and PpiD” at Tig (trigger factor); “covalent PQQ binding in the case of Tig, HtpG, MBP, RuvB, SurA, and PpiD” at PpiD; “confirming K26 as the predominant covalent binding site” at RuvB; “covalent PQQ binding in the case of Tig, HtpG, MBP, RuvB, SurA, and PpiD” in [2]. In addition, the mass shift result in experiment [1] was “confirmed Tig and 6GPD as covalent binding protein hits”. For the same molecule, on FklB, the “UV/vis spectral shift; competition of PQQ4 labelling” value is “addition of the cofactor revealed characteristic spectroscopic shifts comparable to those of YliI and PedH”.
Consider `CCO` [ethanol], for which the coupled colorimetric assay result at PedH is recorded as “Ethanol dehydrogenase activity of PedH reconstituted with PQQ or PQQ probes was measured”.
For `OC[C@H]1OC(O)[C@H](O)[C@@H](O)[C@@H]1O` (stereo partly shown) [glucose], the coupled colorimetric assay result on YliI was “Glucose dehydrogenase activity of YliI reconstituted with PQQ or PQQ probes was measured”.
